In patent US20220288057A1, “CONJOINT THERAPY FOR TREATING SEIZURE DISORDERS” (XENON PHARMACEUTICALS INC., priority 2021, published 2022):
Like-named read-outs stand apart in the source and are kept apart here.

Experiment: Terminal plasma and brain concentrations in AC-MES studies (UHPLC-MS/MS)
Assay type: in vivo, mouse
Procedure: Sample Collection and Preparation: Mice were anesthetized by isoflurane inhalation (according to SOP TECH-018) until they reached a surgical plane of anesthesia. Then a syringe (1 mL syringe with a 22 gauge needle) was inserted under the sternum into the heart (according to SOP TECH-031). Approximately 0.5 mL of blood was collected, deposited into a K2EDTA tube, and stored on ice. Animals were then euthanized by cervical dislocation. Brains were removed, placed into a pre-weighed vial, and snap frozen on dry ice. At the end of the sample collection, blood was centrifuged at 4000 rpm for 10 minutes at 4° C., and the plasma pipetted into a labeled tube. All samples were stored in a −80° C. freezer until the time of bioanalysis.
Plasma Samples: Extraction of plasma samples was carried out by protein precipitation using acetonitrile. Diluted plasma samples (50 μL) were mixed with 50 μL of internal standard (IS) solution in 1:1 acetonitrile:water (v:v) followed by addition of 200 μL of acetonitrile. Samples were vortexed for 30 seconds, centrifuged at 13,000 rpm for 20 minutes, decanted into a 96-well plate and further centrifuged at 4000 rpm for 20 minutes. The samples were analyzed by ultra-high performance liquid chromatography electrospray ionization tandem mass spectrometry (UHPLC-ESI-MS/MS) as described in the bioanalysis procedure below.
Brain Samples: Prior to extraction, pre-weighed whole brains were homogenized in 1:1 acetonitrile:water (v:v) (2 mL per mouse brain) using an IKA T18 Ultra-Turrax Homogenizer at the setting of 4 for approximately 1 minute. The homogenate was centrifuged at 13,000 rpm for 20 minutes and 50 μL of the supernatant were treated exactly as described in above for plasma samples.
Bioanalysis Procedures: All samples, including plasma and brain homogenate extracts (including calibration standards and quality control (QC) samples prepared in K2EDTA mouse plasma), were extracted by protein precipitation. To each 50 μL aliquot of sample, 50 μL of IS solution (2500 ng/mL of Lacosamide in water:acetonitrile (1:1)) and 50 μL of 6% (v:v) phosphoric acid in water were added, then 200 μL acetonitrile was added. The samples in 1.7 mL tubes were vortex-mixed then centrifuged for 20 minutes at 13,000 rpm. Fifty microliters of the supernatant was mixed with 150 μL of water:acetonitrile (1:1) in a 96 well plate, which was centrifuged post-mixing for 20 minutes at 4000 rpm. The samples were then ready for UHPLC-MS/MS analysis.
Samples were analyzed for Compound A by a research-grade UHPLC-MS/MS method using the conditions listed below.
Samples were analyzed for Lacosamide by a research-grade UHPLC-MS/MS method using the conditions listed below.
At least three QC samples, one at each concentration, had to show back-calculated values within ±20% of their nominal concentrations for the whole sample batch to be valid.
The Blinding and Randomization, Clinical Observations, AC-MES Assay, Sample Collection and Preparation, Plasma and Brain Samples Analysis, and Bioanalysis Procedures in Example 4 were identical to those used in Example 2.
Sample concentration determination and Data Processing and Analysis in Example 4 was identical to Example 2.

## NC(=O)O[C@@H](Cn1ncnn1)c1ccccc1Cl [Cenobamate, reference compound]
CF-1, mouse, in vivo, 3 mg/kg, Study 4D, Cenobamate 3 mg/kg single oral dose, 2 h pre-treatment, CF-1 mice, read-out: Mean Brain
  concentration at 2 h: 8.7 µM
CF-1, mouse, in vivo, 3 mg/kg, Study 4D, Cenobamate 3 mg/kg single oral dose, 2 h pre-treatment, CF-1 mice, read-out: Mean Plasma
  concentration at 2 h: 29.6 µM
CF-1, mouse, in vivo, 3 mg/kg, Study 4E, Cenobamate 3 mg/kg single oral dose, 2 h pre-treatment, CF-1 mice, read-out: Mean Brain
  concentration at 2 h: 12.2 µM
CF-1, mouse, in vivo, 3 mg/kg, Study 4E, Cenobamate 3 mg/kg single oral dose, 2 h pre-treatment, CF-1 mice, read-out: Mean Plasma
  concentration at 2 h: 27.7 µM
CF-1, mouse, in vivo, 5 mg/kg, Study 4E, Cenobamate 5 mg/kg single oral dose, 2 h pre-treatment, CF-1 mice, read-out: Mean Brain
  concentration at 2 h: 22.1 µM
CF-1, mouse, in vivo, 5 mg/kg, Study 4E, Cenobamate 5 mg/kg single oral dose, 2 h pre-treatment, CF-1 mice, read-out: Mean Plasma
  concentration at 2 h: 53.6 µM
CF-1, mouse, in vivo, 5 mg/kg, Study 4F, Cenobamate 5 mg/kg PO, 2 h, alone, read-out: mean plasma concentration
  concentration at 2 h: 31.3 µM
CF-1, mouse, in vivo, 5 mg/kg, Study 4F, Cenobamate 5 mg/kg PO alone, 2 h pre-treatment, CF-1 mice, read-out: Mean Brain
  concentration at 2 h: 12 µM
CF-1, mouse, in vivo, 5 mg/kg, Study 4F, Cenobamate 5 mg/kg PO alone, 2 h pre-treatment, CF-1 mice, read-out: Mean Plasma
  concentration at 2 h: 31.3 µM
CF-1, mouse, in vivo, 7.5 mg/kg, Cenobamate 7.5 mg/kg PO, 2 h, alone, read-out: mean plasma concentration
  concentration at 2 h: 78.1 µM
CF-1, mouse, in vivo, 7.5 mg/kg, Study 4E, Cenobamate 7.5 mg/kg single oral dose, 2 h pre-treatment, CF-1 mice, read-out: Mean Brain
  concentration at 2 h: 34.5 µM
CF-1, mouse, in vivo, 7.5 mg/kg, Study 4E, Cenobamate 7.5 mg/kg single oral dose, 2 h pre-treatment, CF-1 mice, read-out: Mean Plasma
  concentration at 2 h: 78.1 µM
CF-1, mouse, in vivo, 10 mg/kg, Cenobamate 10 mg/kg PO, 2 h, alone, read-out: mean plasma concentration
  concentration at 2 h: 87 µM
CF-1, mouse, in vivo, 10 mg/kg, Study 4D, Cenobamate 10 mg/kg single oral dose, 2 h pre-treatment, CF-1 mice, read-out: Mean Brain
  concentration at 2 h: 26.8 µM
CF-1, mouse, in vivo, 10 mg/kg, Study 4D, Cenobamate 10 mg/kg single oral dose, 2 h pre-treatment, CF-1 mice, read-out: Mean Plasma
  concentration at 2 h: 87 µM
CF-1, mouse, in vivo, Study 4G, analyte Cenobamate, 5 mg/kg + 0.5 mg/kg Compound A, read-out: mean total plasma concentration
  concentration at 2 h: 41.1 µM
CF-1, mouse, in vivo, Study 4G, analyte Cenobamate, 5 mg/kg + 1 mg/kg Compound A, read-out: mean total plasma concentration
  concentration at 2 h: 39.7 µM
CF-1, mouse, in vivo, po, 3 mg/kg, Study 4D, Cenobamate 3 mg/kg single oral dose, read-out: B/P Ratio (brain to plasma ratio)
  Kp at 2 h: 0.29
CF-1, mouse, in vivo, po, 3 mg/kg, Study 4E, Cenobamate 3 mg/kg single oral dose, read-out: B/P Ratio (brain to plasma ratio)
  Kp at 2 h: 0.44
CF-1, mouse, in vivo, po, 5 mg/kg, Study 4E, Cenobamate 5 mg/kg single oral dose, read-out: B/P Ratio (brain to plasma ratio)
  Kp at 2 h: 0.41
CF-1, mouse, in vivo, po, 5 mg/kg, Study 4F, Cenobamate 5 mg/kg PO alone, read-out: B/P Ratio (brain to plasma ratio)
  Kp at 2 h: 0.38
CF-1, mouse, in vivo, po, 7.5 mg/kg, Study 4E, Cenobamate 7.5 mg/kg single oral dose, read-out: B/P Ratio (brain to plasma ratio)
  Kp at 2 h: 0.44
CF-1, mouse, in vivo, po, 10 mg/kg, Study 4D, Cenobamate 10 mg/kg single oral dose, read-out: B/P Ratio (brain to plasma ratio)
  Kp at 2 h: 0.31
CF-1, mouse, in vivo, po, 30 mg/kg, Study 4D, Cenobamate 30 mg/kg single oral dose, read-out: B/P Ratio (brain to plasma ratio)
  Kp: 0.3
Study 4D, Cenobamate 30 mg/kg single oral dose, CF-1 mice, read-out: Mean Brain
  concentration at 2 h: 71.3 µM
Study 4D, Cenobamate 30 mg/kg single oral dose, CF-1 mice, read-out: Mean Plasma
  concentration at 2 h: 237 µM
Study 4F, Cenobamate 5 mg/kg PO (2 h) in combination with Compound A 2 mg/kg PO (0.5 h)
  Mean Brain, Cenobamate: 14.7 µM
Study 4G, Cenobamate 5 mg/kg PO (2 h) in combination with Compound A 0.5 mg/kg PO (0.5 h)
  Mean Brain, Cenobamate: 18.1 µM
Study 4G, Cenobamate 5 mg/kg PO (2 h) in combination with Compound A 1 mg/kg PO (0.5 h)
  Mean Brain, Cenobamate: 17.0 µM
